# Experiments:
# hRPIA = test: Western blot of hRPIA protein level after siRNA knockdown or pcDNA3-hRPIA transfection; assay type: cell-based, human; conditions: siRNA knockdown, 48 hours
# β-catenin = test: Western blot of β-catenin after hRPIA siRNA knockdown; assay type: cell-based
# Text: (§1) To examine whether the knockdown of hRPIA in hepatic cancer cells induces cell apoptosis, we used specific siRNA which sequence is: […] (SEQ NO. 1) and; […] (SEQ NO. 2) to knock down hRPIA expression. Next, we used western blot to examine the protein level of caspase-3 and β-catenin. […] A similar data was obtained in PLC5 and HepG2 (FIG. 14B and FIG. 14C respectively).
# (§2) To examine whether the knockdown of hRPIA in colon cancer cells induces cell apoptosis, we used specific siRNA which sequence is: […] (SEQ NO. 1) and; […] ([…]) to knock down hRPIA expression. Next, we used western blot to examine the protein level of caspase-3 and β-catenin.
# Hep3B = test: Wound healing assay (cell motility), Hep3B; assay type: cell-based; conditions: Hep3B, 0, 18 and 24 hours
# Method: (§3) To examine whether the knockdown of hRPIA in cancer cells reduces cell motility, we used specific siRNA to knock down hRPIA expression. To quantify the cancer cell survival rate under the treatment of siRNA against hRPIA which sequence is: […] (SEQ NO. 1) and; […] (SEQ NO. 2) for 0, 18 and 24 hours, we perform wound healing assay to examine the cell motility of hRPIA in Hep3B which were treated with siRNA-hRPIA (cultured in 10% fetal bovine serum with DMEM in 37° C., 5% CO2 for 48 hours) as shown in FIG. 12 respectively. As shown in the figs, the cell motility is lower after adding siRNA.
# Hep3B liver cancer cells = test: MTT cell viability assay, Hep3B; assay type: cell-based
# Text: (§4) Further, we used 3-(4,5-dimethylthiazol-2-yl)-2,5-diphenyltetrazolium bromide (MTT) assay to examine whether the knockdown of hRPIA reduces cancer cell viability. […] A similar data was obtained in PLC5 and HepG2 (FIG. 3B and FIG. 3C respectively).
# (§5) Further, we used 3-(4,5-dimethylthiazol-2-yl)-2,5-diphenyltetrazolium bromide (MTT) assay to examine whether the over-expression of hRPIA in cancer cells induces cancer cell viability. […] A similar data was obtained in PLC5 and HepG2 (FIG. 7B and FIG. 7C respectively).
# (§6) To examine the influence of chemotherapeutic agents on cell growth of liver cancer cell after knocking down of hRPIA, we used specific siRNA to knockdown hRPIA expression and then added 5-fluorouracil (5-FU) by 0, 5, 15, 25 μg/mL into Hep3B, PLC5 and HepG2. Further, we used 3-(4,5-dimethylthiazol-2-yl)-2,5-diphenyltetrazolium bromide (MTT) assay to examine whether the over-expression of hRPIA in cancer cells induces cancer cell viability.
# SW620 colon cancer cells = test: MTT cell viability assay, SW620; assay type: cell-based
# Text: (§7) Further, we used 3-(4,5-dimethylthiazol-2-yl)-2,5-diphenyltetrazolium bromide (MTT) assay to examine whether the knockdown of hRPIA reduces cancer cell viability. […] A similar data was obtained in SW620 (FIG. 5B).
# (§8) Further, we used 3-(4,5-dimethylthiazol-2-yl)-2,5-diphenyltetrazolium bromide (MTT) assay to examine whether the over-expression of hRPIA in cancer cells induces cancer cell viability. […] A similar data was obtained in SW620 (FIG. 9B).
# as §6, with “colon” for “liver”, “knock down” for “knockdown”, “SW480” for “Hep3B, PLC5”, “SW620.” for “HepG2.”
# SW480 colon cancer cells = test: MTT cell viability assay, SW480; assay type: cell-based; conditions: for cell viability by MTT assay after hRPIA knockdown: SW480, 20 nM siRNA
# Text: as §7, §8
# as §6, with “colon” for “liver”, “knock down” for “knockdown”, “SW480” for “Hep3B, PLC5”, “SW620.” for “HepG2.”
# caspase-3 = test: Western blot of caspase-3 after hRPIA siRNA knockdown; assay type: cell-based
# Text: as §1, §2
# SW480 = test: Wound healing assay (cell motility), SW480; assay type: cell-based; conditions: SW480, 0, 14 and 24 hours
# Method: as §3, with “hRPIA in colon cancer cells” for “hRPIA in cancer cells”, “for 0, 14 and 24” for “for 0, 18 and 24”, “hRPIA in SW480 which were” for “hRPIA in Hep3B which were”, “DMEM in 37 °C, 5% CO2” for “DMEM in 37° C., 5% CO2”, “in FIG. 13 respectively. As” for “in FIG. 12 respectively. As”
# PLC5 liver cancer cells = test: MTT cell viability assay, PLC5; assay type: cell-based; conditions: PLC5, 5-FU 0, 5, 15, 25 μg/mL, vs si-negative control transfected cells
# Text: as §4, §5, §6
# HepG2 liver cancer cells = test: MTT cell viability assay, HepG2; assay type: cell-based; conditions: HepG2, 5-FU 0, 5, 15, 25 μg/mL, vs si-negative control transfected cells
# Text: as §4, §5, §6
substance,measurement,setting,value
"siRNA-hRPIA: siRNA against hRPIA, sequence UUCACUUCACUCCAUUUGUGUACCC (SEQ NO. 1) and GGGUACACAAAUGGAGUGAAGUGAA (SEQ NO. 2) (listed as RNA, chemistry not given here)",hRPIA protein level (western blot),"hRPIA; Hep3B liver cancer cells, vs si-negative control",lower
same,hRPIA protein level (western blot),hRPIA; HepG2 liver cancer cells,lower
same,hRPIA protein level (western blot),"hRPIA; PLC5 liver cancer cells, vs si-negative control",lower
same,hRPIA protein level (western blot),hRPIA; SW480 colon cancer cells,lower
same,hRPIA protein level (western blot),hRPIA; SW620 colon cancer cells,lower
same,β-catenin protein level (western blot),β-catenin; Hep3B,slightly reduction
same,β-catenin protein level (western blot),β-catenin; HepG2,significant reduction
same,β-catenin protein level (western blot),β-catenin; PLC5,slightly reduction
same,β-catenin protein level (western blot),β-catenin; SW480,significant reduction
same,cell motility (wound healing assay),Hep3B,lower
same,cell viability by MTT assay after hRPIA knockdown,Hep3B liver cancer cells; 20 nM siRNA,significant reduction in cell viability
same,cytotoxicity caused by 5-fluorouracil after hRPIA knockdown (MTT),"Hep3B liver cancer cells; 5-FU 0, 5, 15, 25 μg/mL, vs si-negative control transfected cells",significantly enhanced the cytotoxicity
same,cell viability by MTT assay after hRPIA knockdown,"SW620 colon cancer cells; SW620, 20 nM siRNA",significantly reduced cell viability
same,cytotoxicity caused by 5-fluorouracil after hRPIA knockdown (MTT),"SW620 colon cancer cells; SW620, 5-FU 0, 5, 15, 25 μg/mL, vs si-negative control transfected cells",significantly enhanced the cytotoxicity
same,cell viability by MTT assay after hRPIA knockdown,SW480 colon cancer cells,significant reduction in cell viability
same,cell viability by MTT assay after hRPIA knockdown,SW480 colon cancer cells; listed as siRNAs against hRPIA,significantly reduced cell viability
same,cytotoxicity caused by 5-fluorouracil after hRPIA knockdown (MTT),"SW480 colon cancer cells; SW480, 5-FU 0, 5, 15, 25 μg/mL, vs si-negative control transfected cells",significantly enhanced the cytotoxicity
same,caspase-3 protein level (western blot),"caspase-3; Hep3B, 48 hours",increased activity of caspase-3
same,caspase-3 protein level (western blot),caspase-3; HepG2,increases caspase-3 expression
same,caspase-3 protein level (western blot),caspase-3; PLC5,increases caspase-3 expression
same,caspase-3 protein level (western blot),"caspase-3; SW480, 48 hours",increased activity of caspase-3
same,cell motility (wound healing assay),SW480,lower
same,cytotoxicity caused by 5-fluorouracil after hRPIA knockdown (MTT),PLC5 liver cancer cells,significantly enhanced the cytotoxicity
same,cytotoxicity caused by 5-fluorouracil after hRPIA knockdown (MTT),HepG2 liver cancer cells,significantly enhanced the cytotoxicity

# Reference: patent US8785412B2, “Method for inducing cancer cell apoptosis or inhibiting the cancer cell migration” (National Tsing Hua University, priority 2011, dated 2014)
